Measured values from patent publication US20250326718A1, “4-PHENYL-2-PYRROLIDINONES AND METHODS OF USING THEREOF” (North Carolina State University, priority 2022, published 2025).
Converted amounts (≈) assume the structure as drawn.

Experiments:
Format in all cases: cell-based
MRSA (ATCC 33591) = experiment: Broth microdilution MIC, MRSA ATCC 33591; conditions: Staphylococcus aureus; Tables 2-4; standardized conditions
Description: General information—Biological Assays. Methicillin-resistant and methicillin sensitive Staphylococcus aureus (MRSA and MSSA respectively) strains were obtained from the Laboratory of Professor Christian Melander (NCSU) (ATCC BAA 44 and 33591) and Dr. Jessica Gilbertie (ATCC 25923). Bacteria were kept in frozen stocks on glycerol at −80° C. until use. Bacteria was streaked onto tryptic-soy agar for colony isolation. Mueller-Hinton broth (MHB, 211443-BD), tryptic soy broth (TSB, Remel: R455052) and D-glucose (CAS: 492-62-6) were purchased from Fisher Scientific. Tryptic soy agar (TSA, cat. #22091) and Linezolid (cat. #P70014) were purchased from Sigma-Aldrich. Bacteria for biofilm inhibition were cultured overnight in TSB-G (tryptic soy broth with 0.5% glucose supplement) in 96 well plates. All assays were run in duplicate and repeated at least two separate times for MIC assays and at least three separate times for biofilm inhibition. All compounds were dissolved in molecular biology grade DMSO as 10 mM stock solutions. Optical densities were measured using a Thermo Scientific Genesys 20 spectrophotometer. Data for biofilm inhibition were collected using a BioTek ELx808 Microplate Reader. All graphs were generated and analyzed using GraphPad Prism 7.
Broth microdilution method for determination of minimum inhibitory concentrations. As prescribed by the Clinical and Laboratory Standards Institute (CLSI) M07-A8, Vol. 29 (2) MSSA (ATCC 25923) and MRSA (ATCC BAA 44 and 33591) was grown in MHB for 6-8 h; this culture was used to inoculate fresh MHB (5×10^5 CFU/mL). The resulting bacterial suspension was aliquoted (1 mL) into 1.5 mL Eppendorf tubes and compound was added from a 10 mM DMSO stock to achieve the desired initial starting concentration (typically 128 μg/mL). Linezolid (from a 10 mM DMSO stock) was used as a positive control. Inoculated media not treated with compound served as the negative control. The MIC was determined by microbroth dilution following the CLSI guidelines. The MIC was defined as the lowest concentration of antibiotic with no visible growth. The plate was sealed and incubated under stationary conditions at 37° C.
The antimicrobial activity of Compounds 1-15 was assessed initially against MSSA (ATCC 25923) and MRSA (ATCC 33591) strains. It was observed that almost all these compounds precipitated in aqueous solution at concentrations equal or higher than 8-16 μg/mL. In order to obtain preliminary results on the antimicrobial activity for these compounds, the standard conditions of the antimicrobial assays used where modified to favor the water solubility of these compounds.

MSSA (ATCC 25923) = experiment: Broth microdilution MIC, MSSA ATCC 25923; conditions: Staphylococcus aureus; Tables 2-4; standardized conditions; read-out: MIC (S. aureus 25923)
S. aureus 29213 = experiment: Broth microdilution MIC, S. aureus 29213; conditions: Staphylococcus aureus, Tables 3-4, standardized conditions, read-out: MIC (S. aureus 29213)

| SMILES | MIC (MRSA (ATCC 33591)) | MIC (MSSA (ATCC 25923)) | MIC (S. aureus 29213) |
| --- | --- | --- | --- |
| CCC1C(c2ccc(C(F)(F)F)cc2)=C(O)C(=O)N1CCN(CCN)CCN (stereo not drawn) [Compound 38, 1-(2-(bis(2-aminoethyl)amino)ethyl)-5-ethyl-3-hydroxy-4-(4-(trifluoromethyl)phenyl)-1,5-dihydro-2H-pyrrol-2-one] | 64 µg/mL (≈ 160 µM) | 64 µg/mL (≈ 160 µM) | 64 µg/mL (≈ 160 µM) |
| CCC1C(c2ccc(C(F)(F)F)cc2)=C(O)C(=O)N1CCN(CCN)CCN1C(=O)C(O)=C(c2ccc(C(F)(F)F)cc2)C1CC (stereo not drawn) [Compound 39, 1,1′-(((2-aminoethyl)azanediyl)bis(ethane-2,1-diyl))bis(5-ethyl-3-hydroxy-4-(4-(trifluoromethyl)phenyl)-1,5-dihydro-2H-pyrrol-2-one)] | 64 µg/mL (≈ 97.8 µM) | 64 µg/mL (≈ 97.8 µM) | 64 µg/mL (≈ 97.8 µM) |
| CCC1C(c2ccc(C(F)(F)F)cc2)=C(O)C(=O)N1CCN(CCN1C(=O)C(O)=C(c2ccc(C(F)(F)F)cc2)C1CC)CCN1C(=O)C(O)=C(c2ccc(C(F)(F)F)cc2)C1CC (stereo not drawn) [Compound 40, 1,1′,1″-(nitrilotris(ethane-2,1-diyl))tris(5-ethyl-3-hydroxy-4-(4-(trifluoromethyl)phenyl)-1,5-dihydro-2H-pyrrol-2-one)] | > 128 µg/mL | > 128 µg/mL | > 128 µg/mL |
| CC1C(c2ccc(C(F)(F)F)cc2)=C(O)C(=O)N1c1ccc(Br)cc1 (stereo not drawn) [Compound 41, 1-(4-Bromophenyl)-3-hydroxy-5-methyl-4-(4-(trifluoromethyl)phenyl)-1,5-dihydro-2H-pyrrol-2-one] | 32 µg/mL (≈ 77.6 µM) | > 128 µg/mL | > 128 µg/mL |
| CCC1C(c2ccc(C(F)(F)F)cc2)=C(O)C(=O)N1c1ccc(Br)cc1 (stereo not drawn) [Compound 42, 1-(4-Bromophenyl)-5-ethyl-3-hydroxy-4-(4-(trifluoromethyl)phenyl)-1,5-dihydro-2H-pyrrol-2-one] | > 128 µg/mL | > 128 µg/mL | > 128 µg/mL |
| O=C1C(O)=C(c2ccc(C(F)(F)F)cc2)C(C2CC2)N1c1ccc(Br)cc1 (stereo not drawn) [Compound 43, 1-(4-Bromophenyl)-5-cyclopropyl-3-hydroxy-4-(4-(trifluoromethyl)phenyl)-1,5-dihydro-2H-pyrrol-2-one] | 64 µg/mL (≈ 146 µM) | > 128 µg/mL | > 128 µg/mL |
| O=C1C(O)=C(c2ccc(C(F)(F)F)cc2)C(CCl)N1c1ccc(Br)cc1 (stereo not drawn) [Compound 44, 1-(4-Bromophenyl)-5-(chloromethyl)-3-hydroxy-4-(4-(trifluoromethyl)phenyl)-1,5-dihydro-2H-pyrrol-2-one] | 64 µg/mL (≈ 143 µM) | 64 µg/mL (≈ 143 µM) | 128 µg/mL (≈ 287 µM) |
| O=C1C(O)=C(c2ccc(C(F)(F)F)cc2)C(c2cccs2)N1c1ccc(Br)cc1 (stereo not drawn) [Compound 45, 1-(4-Bromophenyl)-3-hydroxy-5-(thiophen-2-yl)-4-(4-(trifluoromethyl)phenyl)-1,5-dihydro-2H-pyrrol-2-one] | > 128 µg/mL | > 128 µg/mL | 128 µg/mL (≈ 266 µM) |
| O=C1C(O)=C(c2ccc(C(F)(F)F)cc2)C(Cc2ccccc2)N1c1ccc(Br)cc1 (stereo not drawn) [Compound 46, 5-Benzyl-1-(4-bromophenyl)-3-hydroxy-4-(4-(trifluoromethyl)phenyl)-1,5-dihydro-2H-pyrrol-2-one] | > 128 µg/mL | > 128 µg/mL | > 128 µg/mL |
| O=C1C(O)=C(c2ccc(C(F)(F)F)cc2)C([C@@H](O)c2ccccc2)N1c1ccc(Br)cc1 (stereo partly drawn) [Compound 48, 1-(4-Bromophenyl)-3-hydroxy-5-((S)-hydroxy(phenyl)methyl)-4-(4-(trifluoromethyl)phenyl)-1,5-dihydro-2H-pyrrol-2-one] | 32 µg/mL (≈ 63.5 µM) | 32 to 64 µg/mL (≈ 63.5 to 127 µM) | 16 µg/mL (≈ 31.7 µM) |
| O=C1C(O)=C(c2ccc(C(F)(F)F)cc2)C(C(O)CO)N1c1ccc(Br)cc1 (stereo not drawn) [Compound 49, 1-(4-Bromophenyl)-5-(1,2-dihydroxyethyl)-3-hydroxy-4-(4-(trifluoromethyl)phenyl)-1,5-dihydro-2H-pyrrol-2-one] | > 128 µg/mL | > 128 µg/mL | > 128 µg/mL |
| CCCCCCN1C(=O)C(O)=C(c2ccc(C(F)(F)F)cc2)C1[C@H](O)c1ccccc1 (stereo partly drawn) [Compound 50, 1-Hexyl-3-hydroxy-5-((R)-hydroxy(phenyl)methyl)-4-(4-(trifluoromethyl)phenyl)-1,5-dihydro-2H-pyrrol-2-one] | > 128 µg/mL | > 128 µg/mL | > 128 µg/mL |
| O=C1C(O)=C(c2ccc(C(F)(F)F)cc2)C([C@H](O)c2ccccc2)N1c1ccccc1 (stereo partly drawn) [Compound 51, 3-Hydroxy-5-((R)-hydroxy(phenyl)methyl)-1-phenyl-4-(4-(trifluoromethyl)phenyl)-1,5-dihydro-2H-pyrrol-2-one] | 32 µg/mL (≈ 75.2 µM) | 64 µg/mL (≈ 150 µM) | 32 µg/mL (≈ 75.2 µM) |
| COc1ccc(N2C(=O)C(O)=C(c3ccc(C(F)(F)F)cc3)C2[C@H](O)c2ccccc2)cc1 (stereo partly drawn) [Compound 52, 3-Hydroxy-5-((R)-hydroxy(phenyl)methyl)-1-(4-methoxyphenyl)-4-(4-(trifluoromethyl)phenyl)-1,5-dihydro-2H-pyrrol-2-one] | > 128 µg/mL | > 128 µg/mL | > 128 µg/mL |
| O=C1C(O)=C(c2ccc(C(F)(F)F)cc2)C([C@H](O)c2ccccc2)N1c1ccc(F)cc1 (stereo partly drawn) [Compound 53, 1-(4-Fluorophenyl)-3-hydroxy-5-((R)-hydroxy(phenyl)methyl)-4-(4-(trifluoromethyl)phenyl)-1,5-dihydro-2H-pyrrol-2-one] | 128 µg/mL (≈ 289 µM) | 16 µg/mL (≈ 36.1 µM) | 128 µg/mL (≈ 289 µM) |
| O=C1C(O)=C(c2ccc(C(F)(F)F)cc2)C([C@H](O)c2ccccc2)N1c1ccc(Cl)cc1 (stereo partly drawn) [Compound 54, 1-(4-Chlorophenyl)-3-hydroxy-5-((R)-hydroxy(phenyl)methyl)-4-(4-(trifluoromethyl)phenyl)-1,5-dihydro-2H-pyrrol-2-one] | 4 to 8 µg/mL (≈ 8.7 to 17.4 µM) | 4 µg/mL (≈ 8.7 µM) | 4 µg/mL (≈ 8.7 µM) |
| O=C1C(O)=C(c2ccc(C(F)(F)F)cc2)C([C@H](O)c2ccccc2)N1c1ccc(I)cc1 (stereo partly drawn) [Compound 55, 3-Hydroxy-5-((R)-hydroxy(phenyl)methyl)-1-(4-iodophenyl)-4-(4-(trifluoromethyl)phenyl)-1,5-dihydro-2H-pyrrol-2-one] | 4 µg/mL (≈ 7.26 µM) | 2 to 4 µg/mL (≈ 3.63 to 7.26 µM) | 2 µg/mL (≈ 3.63 µM) |
| O=C1C(O)=C(c2ccc(C(F)(F)F)cc2)C([C@H](O)c2ccccc2)N1c1ccc(C(F)(F)F)cc1 (stereo partly drawn) [Compound 56, 3-Hydroxy-5-((R)-hydroxy(phenyl)methyl)-1,4-bis(4-(trifluoromethyl)phenyl)-1,5-dihydro-2H-pyrrol-2-one] | 2 µg/mL (≈ 4.05 µM) | 2 µg/mL (≈ 4.05 µM) | 2 µg/mL (≈ 4.05 µM) |
